Assay results from patent publication US20260102383A1, “LPAR1 Inhibitors” (AbbVie Inc., priority 2024, published 2026).

Biological target: T1, human LPAR1 (Homo sapiens, UniProt Q92633)
T1 construct: host or cells: TangoEDG2-bla U2OS cells
Experiment: Arrestin assay (Arrestin Reporter EDG2-bla U2OS), inhibition of LPA-stimulated signal
Type: cell-based
Settings: TangoEDG2-bla U2OS cells expressing human LPAR1; 0.25 μM LPA; read-out: Arrestin Reporter EDG2-bla U2OS Human Merged IC50
How it was run: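 IC50 comes from a variable-slope 4-parameter fit of % inhibition, calculated from the beta-lactamase FRET ratio (emission 460/530 nm, excitation 409 nm, 2 h development at RT). Compounds, 10 μM down to 0.00006 μM in 3-fold steps, were given 1 h before 0.25 μM final LPA for 3 h in TangoEDG2-bla U2OS cells.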

T1 sequence (Q92633 whole entry): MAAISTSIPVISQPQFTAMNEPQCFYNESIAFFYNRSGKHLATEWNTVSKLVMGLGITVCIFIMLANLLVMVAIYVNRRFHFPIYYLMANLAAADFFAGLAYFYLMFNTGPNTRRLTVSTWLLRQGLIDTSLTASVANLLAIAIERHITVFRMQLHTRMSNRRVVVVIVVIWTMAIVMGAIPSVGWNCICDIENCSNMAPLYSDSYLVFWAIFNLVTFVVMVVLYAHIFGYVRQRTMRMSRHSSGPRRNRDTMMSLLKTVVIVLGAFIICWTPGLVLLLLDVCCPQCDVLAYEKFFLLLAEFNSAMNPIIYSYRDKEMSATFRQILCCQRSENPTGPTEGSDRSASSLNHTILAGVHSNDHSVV

SMILES	IC50 [nM]
CC(C)c1ccnn1C1(C(=O)Nc2ccc(Cl)cc2OC(F)F)CCN(C[C@H](CO)C(=O)O)CC1 [Compound 183, (2R)-2-[[4-[[4-chloro-2-(difluoromethoxy)phenyl]carbamoyl]-4-(5-isopropylpyrazol-1-yl)-1-piperidyl]methyl]-3-hydroxy-propanoic acid]	39.4
CO[C@H]1CC[C@H]([C@@H](CN2CCC(C(=O)Nc3ccc(Cl)cc3OC(F)F)(n3nccc3C(C)C)CC2)C(=O)O)CC1 [Compound 187, (2S)-3-[4-[[4-chloro-2-(difluoromethoxy)phenyl]carbamoyl]-4-(5-isopropylpyrazol-1-yl)-1-piperidyl]-2-((1r,4S)-4-methoxycyclohexyl) propanoic acid]	75.9
COCCC(CN1CCC(C(=O)Nc2ccc(Cl)cc2OC(F)F)(n2ncc(F)c2C(C)C)CC1)C(=O)O (centres unmarked) [Compound 188, 2-[[4-[[4-chloro-2-(difluoromethoxy)phenyl]carbamoyl]-4-(4-fluoro-5-isopropyl-pyrazol-1-yl)-1-piperidyl]methyl]-4-methoxy-butanoic acid]	38.3
Cc1cnn(CC(CN2CCC(C(=O)Nc3ccc(Cl)cc3OC(F)F)(n3nccc3C(C)C)CC2)C(=O)O)c1 (centres unmarked) [Compound 189, 2-[[4-[[4-chloro-2-(difluoromethoxy)phenyl]carbamoyl]-4-(5-isopropylpyrazol-1-yl)-1-piperidyl]methyl]-3-(4-methylpyrazol-1-yl)propanoic acid]	31.2
COCC[C@@H](CN1CCC(C(=O)Nc2ccc(Cl)cc2OC(F)F)(n2ncc(F)c2C(C)C)CC1)C(=O)O [Compound 190, (2S)-2-[[4-[[4-chloro-2-(difluoromethoxy)phenyl]carbamoyl]-4-(4-fluoro-5-isopropyl-pyrazol-1-yl)-1-piperidyl]methyl]-4-methoxy-butanoic acid]	37.9
COCC[C@H](CN1CCC(C(=O)Nc2ccc(Cl)cc2OC(F)F)(n2ncc(F)c2C(C)C)CC1)C(=O)O [Compound 191, (2R)-2-[[4-[[4-chloro-2-(difluoromethoxy)phenyl]carbamoyl]-4-(4-fluoro-5-isopropyl-pyrazol-1-yl)-1-piperidyl]methyl]-4-methoxy-butanoic acid]	33.4
COc1cnn(CC(CN2CCC(C(=O)Nc3ccc(Cl)cc3OC(F)F)(n3nccc3C(C)C)CC2)C(=O)O)c1 (centres unmarked) [Compound 193, 2-[[4-[[4-chloro-2-(difluoromethoxy)phenyl]carbamoyl]-4-(5-isopropylpyrazol-1-yl)-1-piperidyl]methyl]-3-(4-methoxypyrazol-1-yl)propanoic acid]	31.3
CC(C)c1ccnn1C1(C(=O)Nc2ccc(Cl)cc2OC(F)F)CCN(C[C@@H](C(=O)O)[C@H]2C[C@@H](C)O[C@@H](C)C2)CC1 [Compound 195, (25)-3-[4-[[4-chloro-2-(difluoromethoxy)phenyl]carbamoyl]-4-(5-isopropylpyrazol-1-yl)-1-piperidyl]-2-[(2R,4r,6S)-2,6-dimethyltetrahydropyran-4-yl]propanoic acid]	67.6
CC(C)c1ccnn1C1(C(=O)Nc2ccc(Cl)cc2OC(F)F)CCN(CC(C(=O)O)C2COCCOC2)CC1 (centres unmarked) [Compound 196, 3-[4-[[4-chloro-2-(difluoromethoxy)phenyl]carbamoyl]-4-(5-isopropylpyrazol-1-yl)-1-piperidyl]-2-(1,4-dioxepan-6-yl)propanoic acid]	34.7
COC1(C(=O)O)CC(N2CCC(C(=O)Nc3ccc(Cl)cc3OC(F)F)(n3ncc(F)c3C(C)C)CC2)C1 (centres unmarked) [Compound 199, 3-[4-[[4-chloro-2-(difluoromethoxy)phenyl]carbamoyl]-4-(4-fluoro-5-isopropyl-pyrazol-1-yl)-1-piperidyl]-1-methoxy-cyclobutanecarboxylic acid]	40.4
COC1CC(C(CN2CCC(C(=O)Nc3ccc(Cl)cc3OC(F)F)(n3nccc3C(C)C)CC2)C(=O)O)C1 (centres unmarked) [Compound 200, 3-[4-[[4-chloro-2-(difluoromethoxy)phenyl]carbamoyl]-4-(5-isopropylpyrazol-1-yl)-1-piperidyl]-2-(3-methoxycyclobutyl) propanoic acid]	37.7
COc1cnn(C[C@@H](CN2CCC(C(=O)Nc3ccc(Cl)cc3OC(F)F)(n3nccc3C(C)C)CC2)C(=O)O)c1 [Compound 201, (2R)-2-[[4-[[4-chloro-2-(difluoromethoxy)phenyl]carbamoyl]-4-(5-isopropylpyrazol-1-yl)-1-piperidyl]methyl]-3-(4-methoxypyrazol-1-yl)propanoic acid]	30.6
COc1cnn(C[C@H](CN2CCC(C(=O)Nc3ccc(Cl)cc3OC(F)F)(n3nccc3C(C)C)CC2)C(=O)O)c1 [Compound 202, (2S)-2-[[4-[[4-chloro-2-(difluoromethoxy)phenyl]carbamoyl]-4-(5-isopropylpyrazol-1-yl)-1-piperidyl]methyl]-3-(4-methoxypyrazol-1-yl)propanoic acid]	46
CC(C)c1ccnn1C1(C(=O)Nc2ccc(Cl)cc2OC(F)F)CCN(CC(C(=O)O)C(C)O)CC1 (centres unmarked) [Compound 203, 2-[[4-[[4-chloro-2-(difluoromethoxy)phenyl]carbamoyl]-4-(5-isopropylpyrazol-1-yl)-1-piperidyl]methyl]-3-hydroxy-butanoic acid]	66.6
CO[C@]1(C(=O)O)C[C@@H](N2CCC(C(=O)Nc3ccc(Cl)cc3OC(F)F)(n3ncc(F)c3C(C)C)CC2)C1 [Compound 204, (1r,3r)-3-[4-[[4-chloro-2-(difluoromethoxy)phenyl]carbamoyl]-4-(4-fluoro-5-isopropyl-pyrazol-1-yl)-1-piperidyl]-1-methoxy-cyclobutanecarboxylic acid]	46.9
COC[C@H](CN1CCC(C(=O)Nc2ccc(Cl)cc2OC(F)F)(n2ncc(Cl)c2C(C)C)CC1)C(=O)O [Compound 205, (2S)-2-[[4-[[4-chloro-2-(difluoromethoxy)phenyl]carbamoyl]-4-(4-chloro-5-isopropyl-pyrazol-1-yl)-1-piperidyl]methyl]-3-methoxy-propanoic acid]	17.9

Continued, values first:

IC50 [nM]	SMILES
16.9	COC[C@@H](CN1CCC(C(=O)Nc2ccc(Cl)cc2OC(F)F)(n2ncc(Cl)c2C(C)C)CC1)C(=O)O [Compound 206, (2R)-2-[[4-[[4-chloro-2-(difluoromethoxy)phenyl]carbamoyl]-4-(4-chloro-5-isopropyl-pyrazol-1-yl)-1-piperidyl]methyl]-3-methoxy-propanoic acid]
93.7	COCC[C@H](CN1CCC(C(=O)Nc2ccc(Cl)cc2OC(F)F)(n2ncc3c2C(C)(C)OC3)CC1)C(=O)O [Compound 207, (2R)-2-[[4-[[4-chloro-2-(difluoromethoxy)phenyl]carbamoyl]-4-(6,6-dimethyl-4H-furo[3,4-c]pyrazol-1-yl)-1-piperidyl]methyl]-4-methoxy-butanoic acid]
94.4	COC[C@H](CN1CCC(C(=O)Nc2ccc(Cl)cc2OC(F)F)(n2ncc3c2C(C)(C)OC3)CC1)C(=O)O [Compound 208, (2S)-2-[[4-[[4-chloro-2-(difluoromethoxy)phenyl]carbamoyl]-4-(6,6-dimethyl-4H-furo[3,4-c]pyrazol-1-yl)-1-piperidyl]methyl]-3-methoxy-propanoic acid]
33.6	CC(C)c1c(F)cnn1C1(C(=O)Nc2ccc(Cl)cc2OC(F)F)CCN(C[C@@H](CO)C(=O)O)CC1 [Compound 209, (2S)-2-[[4-[[4-chloro-2-(difluoromethoxy)phenyl]carbamoyl]-4-(4-fluoro-5-isopropyl-pyrazol-1-yl)-1-piperidyl]methyl]-3-hydroxy-propanoic acid]
123	COCC[C@@H](CN1CCC(C(=O)Nc2ccc(Cl)cc2OC(F)F)(n2ncc3c2C(C)(C)OC3)CC1)C(=O)O [Compound 210, (2S)-2-[[4-[[4-chloro-2-(difluoromethoxy)phenyl]carbamoyl]-4-(6,6-dimethyl-4H-furo[3,4-c]pyrazol-1-yl)-1-piperidyl]methyl]-4-methoxy-butanoic acid]
87.3	COC[C@@H](CN1CCC(C(=O)Nc2ccc(Cl)cc2OC(F)F)(n2ncc3c2C(C)(C)OC3)CC1)C(=O)O [Compound 211, (2R)-2-[[4-[[4-chloro-2-(difluoromethoxy)phenyl]carbamoyl]-4-(6,6-dimethyl-4H-furo[3,4-c]pyrazol-1-yl)-1-piperidyl]methyl]-3-methoxy-propanoic acid]
46.3	CC(C)c1c(F)cnn1C1(C(=O)Nc2ccc(Cl)cc2OC(F)F)CCN([C@H]2C[C@](C)(C(=O)O)C2)CC1 [Compound 212, (1r,3r)-3-[4-[[4-chloro-2-(difluoromethoxy)phenyl]carbamoyl]-4-(4-fluoro-5-isopropyl-pyrazol-1-yl)-1-piperidyl]-1-methyl-cyclobutanecarboxylic acid]
22.2	CC(C)c1c(F)cnn1C1(C(=O)Nc2ccc(Cl)cc2OC(F)F)CCN(C[C@H](CO)C(=O)O)CC1 [Compound 213, (2R)-2-[[4-[[4-chloro-2-(difluoromethoxy)phenyl]carbamoyl]-4-(4-fluoro-5-isopropyl-pyrazol-1-yl)-1-piperidyl]methyl]-3-hydroxy-propanoic acid]
75.8	CC(C)c1c(F)cnn1C1(C(=O)Nc2ccc(Cl)cc2OC(F)F)CCN([C@H]2CO[C@@H](C(=O)O)C2)CC1 [Compound 214, (2R,4R)-4-[4-[[4-chloro-2-(difluoromethoxy)phenyl]carbamoyl]-4-(4-fluoro-5-isopropyl-pyrazol-1-yl)-1-piperidyl]tetrahydrofuran-2-carboxylic acid]
18.5	CC(C)c1ccnn1C1(C(=O)Nc2ccc(Cl)cc2OC(F)F)CCN(C[C@@H](C(=O)O)C2COCCOC2)CC1 [Compound 215, (2S)-3-[4-[[4-chloro-2-(difluoromethoxy)phenyl]carbamoyl]-4-(5-isopropylpyrazol-1-yl)-1-piperidyl]-2-(1,4-dioxepan-6-yl)propanoic acid]
